Reference: ChEMBL document CHEMBL4411296, “Design and development of Isatin-triazole hydrazones as potential inhibitors of microtubule affinity-regulating kinase 4 for the therapeutic management of cell proliferation and metastasis” (Eur J Med Chem, 2019)

How the values were obtained:
Format in all cases: functional
SF-268 = experiment: Growth inhibition of human SF268 cells assessed as cell growth at 10 uM after 48 hrs by sulforhodamine B assay relative to control; settings: SF-268, 48 h, read-out: Activity
OVCAR-3 = experiment: Growth inhibition of human OVCAR3 cells assessed as cell growth at 10 uM after 48 hrs by sulforhodamine B assay relative to control; settings: OVCAR-3, 48 h, read-out: Activity
MDA-MB-468 = experiment: Growth inhibition of human MDA-MB-468 cells assessed as cell growth at 10 uM after 48 hrs by sulforhodamine B assay relative to control; settings: MDA-MB-468, 48 h, read-out: Activity
CAKI-1 = experiment: Growth inhibition of human Caki1 cells assessed as cell growth at 10 uM after 48 hrs by sulforhodamine B assay relative to control; settings: CAKI-1, 48 h, read-out: Activity
SK-MEL-5 = experiment: Growth inhibition of human SK-MEL-5 cells assessed as cell growth at 10 uM after 48 hrs by sulforhodamine B assay relative to control; settings: SK-MEL-5, 48 h, read-out: Activity
A549 = experiment: Growth inhibition of human A549/ATCC cells assessed as cell growth at 10 uM after 48 hrs by sulforhodamine B assay relative to control; settings: A549, 48 h, read-out: Activity
SNB-75 = experiment: Growth inhibition of human SNB75 cells assessed as cell growth at 10 uM after 48 hrs by sulforhodamine B assay relative to control; settings: SNB-75, 48 h, read-out: Activity
UACC-62 = experiment: Growth inhibition of human UACC62 cells assessed as cell growth at 10 uM after 48 hrs by sulforhodamine B assay relative to control; settings: UACC-62, 48 h, read-out: Activity
CCRF-CEM = experiment: Growth inhibition of human CCRF-CEM cells assessed as cell growth at 10 uM after 48 hrs by sulforhodamine B assay relative to control; settings: read-out: Activity
A498 = experiment: Growth inhibition of human A498 cells assessed as cell growth at 10 uM after 48 hrs by sulforhodamine B assay relative to control; settings: A498, 48 h, read-out: Activity
HL-60(TB) = experiment: Growth inhibition of human HL-60(TB) cells assessed as cell growth at 10 uM after 48 hrs by sulforhodamine B assay relative to control; settings: HL-60, 48 h, read-out: Activity
M14 = experiment: Growth inhibition of human M14 cells assessed as cell growth at 10 uM after 48 hrs by sulforhodamine B assay relative to control; settings: M14, 48 h, read-out: Activity
NCI-H322M = experiment: Growth inhibition of human NCI-H322M cells assessed as cell growth at 10 uM after 48 hrs by sulforhodamine B assay relative to control; settings: read-out: Activity
IGROV-1 = experiment: Growth inhibition of human IGROV1 cells assessed as cell growth at 10 uM after 48 hrs by sulforhodamine B assay relative to control; settings: IGROV-1, 48 h, read-out: Activity
DU-145 = experiment: Growth inhibition of human DU145 cells assessed as cell growth at 10 uM after 48 hrs by sulforhodamine B assay relative to control; settings: DU-145, 48 h, read-out: Activity
RXF 393 = experiment: Growth inhibition of human RXF393 cells assessed as cell growth at 10 uM after 48 hrs by sulforhodamine B assay relative to control; settings: RXF 393, 48 h, read-out: Activity
HOP-62 = experiment: Growth inhibition of human HOP62 cells assessed as cell growth at 10 uM after 48 hrs by sulforhodamine B assay relative to control; settings: HOP-62, 48 h, read-out: Activity
OVCAR-5 = experiment: Growth inhibition of human OVCAR5 cells assessed as cell growth at 10 uM after 48 hrs by sulforhodamine B assay relative to control; settings: OVCAR-5, 48 h, read-out: Activity
UACC-257 = experiment: Growth inhibition of human UACC257 cells assessed as cell growth at 10 uM after 48 hrs by sulforhodamine B assay relative to control; settings: UACC-257, 48 h, read-out: Activity
SK-MEL-28 = experiment: Growth inhibition of human SK-MEL-28 cells assessed as cell growth at 10 uM after 48 hrs by sulforhodamine B assay relative to control; settings: SK-MEL-28, 48 h, read-out: Activity
MDA-MB-435 = experiment: Growth inhibition of human MDA-MB-435 cells assessed as cell growth at 10 uM after 48 hrs by sulforhodamine B assay relative to control; settings: MDA-MB-435, 48 h, read-out: Activity
RPMI-8226 = experiment: Growth inhibition of human RPMI8226 cells assessed as cell growth at 10 uM after 48 hrs by sulforhodamine B assay relative to control; settings: RPMI-8226, 48 h, read-out: Activity
EKVX = experiment: Growth inhibition of human EKVX cells assessed as cell growth at 10 uM after 48 hrs by sulforhodamine B assay relative to control; settings: read-out: Activity
NCI-H226 = experiment: Growth inhibition of human NCI-H226 cells assessed as cell growth at 10 uM after 48 hrs by sulforhodamine B assay relative to control; settings: NCI-H226, 48 h, read-out: Activity
MOLT-4 = experiment: Growth inhibition of human MOLT4 cells assessed as cell growth at 10 uM after 48 hrs by sulforhodamine B assay relative to control; settings: MOLT-4, 48 h, read-out: Activity
NCI-H460 = experiment: Growth inhibition of human NCI-H460 cells assessed as cell growth at 10 uM after 48 hrs by sulforhodamine B assay relative to control; settings: NCI-H460, 48 h, read-out: Activity
SN12C = experiment: Growth inhibition of human SN12C cells assessed as cell growth at 10 uM after 48 hrs by sulforhodamine B assay relative to control; settings: read-out: Activity
OVCAR-8 = experiment: Growth inhibition of human OVCAR8 cells assessed as cell growth at 10 uM after 48 hrs by sulforhodamine B assay relative to control; settings: OVCAR-8, 48 h, read-out: Activity
TK-10 = experiment: Growth inhibition of human TK10 cells assessed as cell growth at 10 uM after 48 hrs by sulforhodamine B assay relative to control; settings: TK-10, 48 h, read-out: Activity
MCF7 = experiment: Growth inhibition of human MCF7 cells assessed as cell growth at 10 uM after 48 hrs by sulforhodamine B assay relative to control; settings: MCF7, 48 h, read-out: Activity
786-0 = experiment: Growth inhibition of human 786-0 cells assessed as cell growth at 10 uM after 48 hrs by sulforhodamine B assay relative to control; settings: 786-0, 48 h, read-out: Activity
HCT-116 = experiment: Growth inhibition of human HCT116 cells assessed as cell growth at 10 uM after 48 hrs by sulforhodamine B assay relative to control; settings: HCT-116, 48 h, read-out: Activity
HCT-15 = experiment: Growth inhibition of human HCT15 cells assessed as cell growth at 10 uM after 48 hrs by sulforhodamine B assay relative to control; settings: HCT-15, 48 h, read-out: Activity

Row | SMILES | growth at 10 µM (SF-268) [%] | growth at 10 µM (OVCAR-3) [%] | growth at 10 µM (MDA-MB-468) [%] | growth at 10 µM (CAKI-1) [%] | growth at 10 µM (SK-MEL-5) [%] | growth at 10 µM (A549) [%] | growth at 10 µM (SNB-75) [%] | growth at 10 µM (UACC-62) [%] | growth at 10 µM (CCRF-CEM) [%] | growth at 10 µM (A498) [%] | growth at 10 µM (HL-60(TB)) [%] | growth at 10 µM (M14) [%] | growth at 10 µM (NCI-H322M) [%] | growth at 10 µM (IGROV-1) [%] | growth at 10 µM (DU-145) [%] | growth at 10 µM (RXF 393) [%] | growth at 10 µM (HOP-62) [%] | growth at 10 µM (OVCAR-5) [%] | growth at 10 µM (UACC-257) [%] | growth at 10 µM (SK-MEL-28) [%] | also measured
1 | COc1ccc(Cn2cc(C(=O)N/N=C3/C(=O)Nc4ccc(Br)cc43)nn2)cc1 | 94.1 | 112 | 96.8 | 97.7 | 98.3 | 95.1 | 112 | 97.2 | 92.5 | 97.1 | 85.2 | 111 | 102 | 105 | 93.7 | 99.8 | 111 | 106 | 102 | 116 | growth at 10 µM (MDA-MB-435): 101%; growth at 10 µM (RPMI-8226): 100%; growth at 10 µM (EKVX): 106%; growth at 10 µM (NCI-H226): 97.5%; growth at 10 µM (MOLT-4): 80.6%; growth at 10 µM (NCI-H460): 111%; growth at 10 µM (SN12C): 102%; growth at 10 µM (OVCAR-8): 99.2%; growth at 10 µM (TK-10): 97.6%; growth at 10 µM (MCF7): 86.3%; growth at 10 µM (786-0): 99.6%; growth at 10 µM (HCT-116): 77%; growth at 10 µM (HCT-15): 105%
2 | COc1ccc(Cn2cc(C(=O)N/N=C3/C(=O)Nc4c(Cl)cccc43)nn2)cc1 | 94.7 | 113 | 98.6 | 94.4 | 101 | 102 | 82 | 102 | 106 | 93.8 | 97.3 | 106 | 101 | 103 | 105 | 109 | 110 | 123 | 92.9 | 115 | growth at 10 µM (MDA-MB-435): 101%; growth at 10 µM (RPMI-8226): 106%; growth at 10 µM (EKVX): 102%; growth at 10 µM (NCI-H226): 102%; growth at 10 µM (MOLT-4): 84.8%; growth at 10 µM (NCI-H460): 99.7%; growth at 10 µM (SN12C): 95.8%; growth at 10 µM (OVCAR-8): 97.4%; growth at 10 µM (TK-10): 106%; growth at 10 µM (MCF7): 84.3%; growth at 10 µM (786-0): 106%; growth at 10 µM (HCT-116): 91.6%; growth at 10 µM (HCT-15): 107%
3 | COc1ccc(Cn2cc(C(=O)N/N=C3/C(=O)Nc4ccc(F)cc43)nn2)cc1 | 103 | 112 | 87.8 | 97.4 | 103 | 94.2 | 104 | 88.6 | 95 | 83.4 | 101 | 111 | 102 | 101 | 103 | 110 | 102 | 94.7 | 91 | 116 | growth at 10 µM (MDA-MB-435): 103%; growth at 10 µM (RPMI-8226): 99.1%; growth at 10 µM (EKVX): 106%; growth at 10 µM (NCI-H226): 98.5%; growth at 10 µM (MOLT-4): 107%; growth at 10 µM (NCI-H460): 106%; growth at 10 µM (SN12C): 94.6%; growth at 10 µM (OVCAR-8): 98.7%; growth at 10 µM (TK-10): 102%; growth at 10 µM (MCF7): 89.5%; growth at 10 µM (786-0): 97.6%; growth at 10 µM (HCT-116): 108%; growth at 10 µM (HCT-15): 103%
4 | COc1ccc(Cn2cc(C(=O)N/N=C3/C(=O)Nc4ccc(Cl)cc43)nn2)cc1 | 98.9 | 109 | 97.2 | 101 | 96.7 | 103 | 115 | 101 | 94.7 | 96.6 | 93.2 | 110 | 104 | 106 | 102 | 103 | 112 | 114 | 113 | 113 | growth at 10 µM (MDA-MB-435): 104%; growth at 10 µM (RPMI-8226): 109%; growth at 10 µM (EKVX): 106%; growth at 10 µM (NCI-H226): 96.8%; growth at 10 µM (MOLT-4): 90.6%; growth at 10 µM (NCI-H460): 102%; growth at 10 µM (SN12C): 101%; growth at 10 µM (OVCAR-8): 105%; growth at 10 µM (TK-10): 84.8%; growth at 10 µM (MCF7): 91.5%; growth at 10 µM (786-0): 99.8%; growth at 10 µM (HCT-116): 107%; growth at 10 µM (HCT-15): 109%
